In US9212163B2, “Pesticidal compositions and processes related thereto” (Dow AgroSciences LLC, priority 2012, dated 2015):
Where two headings read alike, the source gives them in different places.

Assays:
[1] = system: Corn Earworm (CEW) (Helicoverpa zea); assay: Bioassay on Corn Earworm (CEW), 128-well diet tray assay; type: in vivo; settings: Table 3: Assay Results Part 1, read-out: CEW Rating
Method: (§1) Certain molecules disclosed in this document were tested against BAW, CEW and CL using procedures described in the following examples. In the reporting of the results, the “BAW & CEW & CL Rating Table” was used (See Table Section).
Bioassays on CEW (Helicoverpa zea)
Bioassays on CEW were conducted using a 128-well diet tray assay. One to five second instar CEW larvae were placed in each well (3 mL) of the diet tray that had been previously filled with 1 mL of artificial diet to which 50 μg/cm^2 of the test compound (dissolved in 50 μL of 90:10 acetone-water mixture) had been applied (to each of eight wells) and then allowed to dry. Trays were covered with a clear self-adhesive cover, and held at 25° C., 14:10 light-dark for five to seven days. Percent mortality was recorded for the larvae in each well; activity in the eight wells was then averaged. The results are indicated in the table entitled “Table 3: Assay Results Part 1” (See Table Section).

[2] = system: Beet Armyworm (BAW) (Spodoptera exigua); assay: Bioassay on Beet Armyworm (BAW), 128-well diet tray assay; type: in vivo; settings: Spodoptera exigua, read-out: BAW Rating; for pest or weed control at 50 µg/cm2, 50 µg/cm2: 168 h, % mortality, second instar larvae, 50 μg/cm^2 on artificial diet, 25° C., five to seven days, average of eight wells
Method in brief: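 Artificial diet treated with 50 μg/cm^2 compound in 90:10 acetone-water was dried, then one to five second-instar larvae were placed per well, eight wells per compound. Trays were held at 25° C., 14:10 light-dark for five to seven days, and percent mortality averaged across wells.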

[3] = system: Green Peach Aphid (GPA) (Myzus persicae); assay: Bioassay on Green Peach Aphid (GPA), foliar spray on cabbage seedlings; type: in vivo; settings: 72 h, Table 5: Prophetic Compounds Subsequently Exemplified, read-out: GPA Rating
Method: Certain molecules disclosed in this document were tested against GPA using procedures described in the following example. In the reporting of the results, the “GPA Rating Table” was used (See Table Section).
Cabbage seedlings grown in 3-inch pots, with 2-3 small (3-5 cm) true leaves, were used as test substrate. The seedlings were infested with 20-50 GPA (wingless adult and nymph stages) one day prior to chemical application. Four pots with individual seedlings were used for each treatment. Test compounds (2 mg) were dissolved in 2 mL of acetone/methanol (1:1) solvent, forming stock solutions of 1000 ppm test compound. The stock solutions were diluted 5× with 0.025% Tween 20 in H2O to obtain the solution at 200 ppm test compound. A hand-held aspirator-type sprayer was used for spraying a solution to both sides of […] leaves until runoff. Reference plants (solvent check) were sprayed with the diluent only containing 20% by volume of acetone/methanol (1:1) solvent. Treated plants were held in a holding room for three days at approximately 25° C. and ambient relative humidity (RH) prior to grading. Evaluation was conducted by counting the number of live aphids per plant under a microscope. Percent Control was measured by using Abbott's correction formula (W. S. Abbott, “A Method of Computing the Effectiveness of an Insecticide” J. Econ. Entomol. 18 (1925), pp. 265-267) as follows. Corrected % Control=100*(X−Y)/X • where • X=No. of live aphids on solvent check plants and • Y=No. of live aphids on treated plants
The results are indicated in the tables entitled “Table 3: Assay Results” and “Table 4: Assay Results Part 2” (See Table Section).

[4] = system: Cabbage Looper (CL) (Trichoplusia ni); assay: Bioassay on Cabbage Looper (CL), 128-well diet tray assay; type: in vivo; settings: read-out: CL Rating; for pest or weed control at 50 µg/cm2: Table 5: Prophetic Compounds Subsequently Exemplified; for pest or weed control at 50 µg/cm2, 50 µg/cm2: 168 h, % mortality, second instar larvae, 50 μg/cm^2 on artificial diet, 25° C., five to seven days, average of eight wells
Method: as §1
Bioassays on CL (Trichoplusia ni)
Bioassays on CL were conducted using a 128-well diet tray assay. One to five second instar CL larvae were placed in each well (3 mL) of the diet tray that had been previously filled with 1 mL of artificial diet to which 50 μg/cm^2 of the test compound (dissolved in 50 μL of 90:10 acetone-water mixture) had been applied (to each of eight wells) and then allowed to dry. Trays were covered with a clear self-adhesive cover, and held at 25° C., 14:10 light-dark for five to seven days. Percent mortality was recorded for the larvae in each well; activity in the eight wells was then averaged. The results are indicated in the table entitled “Table 4: Assay Results Part 2” (See Table Section).

[5] = Table 5: Prophetic Compounds Subsequently Exemplified

Row | Structure (SMILES) | pest or weed control at 50 µg/cm2 [4] [%] | pest or weed control at 50 µg/cm2 [2, 5] [%] | also measured
1 | Cc1cc(/C=C/C(c2cc(Cl)cc(Cl)c2)C(F)(F)F)ccc1C(=O)NCC(=O)NCC(F)(F)F (centres unmarked) [AC24] | – | – | pest or weed control at 50 µg/cm2 [1]: 50 to 100%; pest or weed control at 50 µg/cm2 ([2]; Table 3: Assay Results Part 1): 50 to 100%
2 | CCNC(=O)C1(NC(=O)c2ccc(/C=C/C(c3cc(Cl)c(Cl)c(Cl)c3)C(F)(F)F)cc2C(F)(F)F)CC1 (centres unmarked) [Compound P1025] | 50 to 100 | 50 to 100 | pest or weed control at 200 µg/mL [3]: 0 to 80%
3 | O=C(NC1(C(=O)NCC(F)(F)F)CC1)c1ccc(/C=C/C(c2ccc(Cl)c([N+](=O)[O-])c2)C(F)(F)F)cc1C(F)(F)F (centres unmarked) [Compound P470] | 50 to 100 | 50 to 100 | pest or weed control at 200 µg/mL [3]: 0 to 80%
4 | CCNC(=O)C1(NC(=O)c2ccc(/C=C/C(c3cc(Cl)c(Cl)c(Cl)c3)C(F)(F)F)cc2C)CC1 (centres unmarked) [Compound P1026] | 50 to 100 | 50 to 100 | pest or weed control at 200 µg/mL [3]: 0 to 80%
5 | NC(=O)c1ccc(/C=C/C(c2cc(Cl)cc(Cl)c2)C(F)(F)F)cc1 (centres unmarked) [AC2] | – | – | melting point: 110 to 112 °C
6 | O=C(NC1(C(=O)NCC(F)(F)F)CC1)c1ccc(/C=C/C(c2cc(Cl)c(Cl)c(Cl)c2)C(F)(F)F)cc1Br (centres unmarked) [Compound F3] | – | – | pest or weed control at 50 µg/cm2, 50 µg/cm2 [4]: 50 to 100%; pest or weed control at 50 µg/cm2, 50 µg/cm2 [2]: 50 to 100%
7 | O=C(NC1(C(=O)NCC(F)(F)F)CC1)c1ccc(/C=C/C(c2cc(Cl)c(Cl)c(Cl)c2)C(F)(F)F)cc1Cl (centres unmarked) [Compound F8] | – | – | pest or weed control at 50 µg/cm2, 50 µg/cm2 [4]: 50 to 100%; pest or weed control at 50 µg/cm2, 50 µg/cm2 [2]: 50 to 100%
8 | O=C(NC1(C(=O)NCC(F)(F)F)CC1)c1ccc(/C=C/[C@H](c2cc(Cl)c(Cl)c(Cl)c2)C(F)(F)F)cc1C(F)(F)F (single isomer, unassigned) [Compound F8A] | – | – | pest or weed control at 50 µg/cm2, 50 µg/cm2 [4]: 50 to 100%; pest or weed control at 50 µg/cm2, 50 µg/cm2 [2]: 50 to 100%
9 | Cc1cc(/C=C/C(c2cc(Cl)c(Cl)c(Cl)c2)C(F)(F)F)ccc1C(=O)NC1(C(=S)NCC(F)(F)F)CC1 (centres unmarked) [Compound P1011] | 50 to 100 | 50 to 100 | –
10 | O=C(NC1(C(=O)NCCF)CC1)c1ccc(/C=C/C(c2cc(Br)cc(Br)c2)C(F)(F)F)cc1C(F)(F)F (centres unmarked) [Compound P1200] | 50 to 100 | 50 to 100 | –
11 | O=C(NC1(C(=O)NCC(F)(F)F)CCC1)c1ccc(/C=C/C(c2cc(Cl)c(Cl)c(Cl)c2)C(F)(F)F)cc1Cl (centres unmarked) [Compound F4] | – | – | pest or weed control at 50 µg/cm2, 50 µg/cm2 [4]: 50 to 100%; pest or weed control at 50 µg/cm2, 50 µg/cm2 [2]: 50 to 100%
12 | O=C(NC1(C(=O)NCC(F)(F)F)CC1)c1ccc(/C=C/C(c2cc(Cl)c(Cl)cc2Cl)C(F)(F)F)cc1Br (centres unmarked) [Compound P108] | 50 to 100 | 50 to 100 | –
13 | Cc1cc(C(/C=C/c2ccc(C(=O)NC3(C(=O)NCC(F)(F)F)CC3)c(C(F)(F)F)c2)C(F)(F)F)ccc1Cl (centres unmarked) [Compound P245] | 50 to 100 | 50 to 100 | –
14 | Cc1cc(C(/C=C/c2ccc(C(=O)NC3(C(=O)NCC(F)(F)F)CC3)c(C(F)(F)F)c2)C(F)(F)F)ccc1F (centres unmarked) [Compound P336] | 50 to 100 | 50 to 100 | –
15 | O=C(NC1(C(=O)NCC(F)F)CC1)c1ccc(/C=C/C(c2cc(Br)cc(Br)c2)C(F)(F)F)cc1C(F)(F)F (centres unmarked) [Compound P1195] | 50 to 100 | 50 to 100 | –
